# Experimental data as given in the supplement of paper PMC7017272.
# ± gives the standard deviation of the averaged measurements.
# Experiments:
# Conditions in all cases: treatment time: 3 days
# UT-SCC-106A [1] = experiment: maximal % inhibition of viability relative to DMSO; higher = stronger effect
# Method in brief: (§1)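 HPV-negative HNSCC cell lines were plated at 500 cells/well in 384-well plates, either on plastic, on wells coated with Matrigel or Myogel (500 µg/mL), or embedded in Matrigel or Myogel plus rat collagen I. Each compound was tested at five 10-fold concentrations over 3 days. Viability was measured by CellTiter-Glo 2.0 luminescence, and IC50, maximal inhibition and drug sensitivity score came from percent-inhibition dose–response curves fitted in the FIMM pipeline after normalisation to vehicle (0.1% DMSO) and cell-killing control wells.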
# UT-SCC-40 [2] = experiment: as above
# Method in brief: as §1
# UT-SCC-42A [3] = experiment: as above
# Method in brief: as §1
# UT-SCC-28 [4] = experiment: as above
# Method in brief: as §1
# UT-SCC-73 [5] = experiment: as above
# Method in brief: as §1
# UT-SCC-44 [6] = experiment: as above
# Method in brief: as §1
# UT-SCC-24B [7] = experiment: as above
# Method in brief: as §1
# UT-SCC-8 [8] = experiment: as above
# Method in brief: as §1
# UT-SCC-106A [9] = experiment: relative IC50 (midpoint of the fitted curve; maximal inhibition may be below 50%); higher = less potent
# Method in brief: as §1
# UT-SCC-14 = experiment: as above
# Method in brief: as §1
# UT-SCC-40 [10] = experiment: as above
# Method in brief: as §1
# UT-SCC-42A [11] = experiment: as above
# Method in brief: as §1
# UT-SCC-42B = experiment: as above
# Method in brief: as §1
# UT-SCC-81 = experiment: as above
# Method in brief: as §1
# UT-SCC-28 [12] = experiment: as above
# Method in brief: as §1
# UT-SCC-73 [13] = experiment: as above
# Method in brief: as §1
# UT-SCC-44 [14] = experiment: as above
# Method in brief: as §1
# UT-SCC-24B [15] = experiment: as above
# Method in brief: as §1
# UT-SCC-8 [16] = experiment: as above
# Method in brief: as §1
# [17] = culture condition: embedded in Matrigel
# [18] = culture condition: embedded in Myogel + collagen I
# [19] = culture condition: on top of Matrigel
# [20] = culture condition: on top of Myogel
# [21] = culture condition: plastic 2D (no matrix)
smiles,measurement,setting,value
C=CC(=O)Nc1cc2c(Nc3ccc(F)c(Cl)c3)ncnc2cc1OCCCN1CCOCC1 [Canertinib],maximal % inhibition of viability,UT-SCC-106A [1]; [17],95.6 ± 2%
same,maximal % inhibition of viability,UT-SCC-106A [1]; [18],95.1 ± 1.2%
same,maximal % inhibition of viability,UT-SCC-106A [1]; [19],97.3 ± 2.1%
same,maximal % inhibition of viability,UT-SCC-106A [1]; [20],97.6 ± 1%
same,maximal % inhibition of viability,UT-SCC-106A [1]; [21],98.83 ± 0.94%
same,maximal % inhibition of viability,UT-SCC-40 [2]; [17],99.5 ± 0.46%
same,maximal % inhibition of viability,UT-SCC-40 [2]; [18],99.37 ± 0.55%
same,maximal % inhibition of viability,UT-SCC-40 [2]; [19],99.73 ± 0.38%
same,maximal % inhibition of viability,UT-SCC-40 [2]; [20],99.63 ± 0.55%
same,maximal % inhibition of viability,UT-SCC-40 [2]; [21],99.67 ± 0.58%
same,maximal % inhibition of viability,UT-SCC-42A [3]; [17],96.9 ± 4.2%
same,maximal % inhibition of viability,UT-SCC-42A [3]; [18],97.4 ± 3.2%
same,maximal % inhibition of viability,UT-SCC-42A [3]; [19],98.3 ± 1.7%
same,maximal % inhibition of viability,UT-SCC-42A [3]; [20],98 ± 1.9%
same,maximal % inhibition of viability,UT-SCC-42A [3]; [21],99.23 ± 0.8%
same,maximal % inhibition of viability,UT-SCC-28 [4]; [17],82.3 ± 4.4%
same,maximal % inhibition of viability,UT-SCC-28 [4]; [18],90.8 ± 3.4%
same,maximal % inhibition of viability,UT-SCC-28 [4]; [19],86.1 ± 2.4%
same,maximal % inhibition of viability,UT-SCC-28 [4]; [21],80.9 ± 5.2%
same,maximal % inhibition of viability,UT-SCC-73 [5]; [17],99.5 ± 0.46%
same,maximal % inhibition of viability,UT-SCC-73 [5]; [18],99.57 ± 0.59%
same,maximal % inhibition of viability,UT-SCC-73 [5]; [19],99.13 ± 0.78%
same,maximal % inhibition of viability,UT-SCC-73 [5]; [20],98.9 ± 0.98%
same,maximal % inhibition of viability,UT-SCC-73 [5]; [21],99.5 ± 0.7%
same,maximal % inhibition of viability,UT-SCC-44 [6]; [17],77.5 ± 7%
same,maximal % inhibition of viability,UT-SCC-44 [6]; [18],92.5 ± 2.4%
same,maximal % inhibition of viability,UT-SCC-44 [6]; [19],92 ± 3.6%
same,maximal % inhibition of viability,UT-SCC-44 [6]; [20],95 ± 3.5%
same,maximal % inhibition of viability,UT-SCC-44 [6]; [21],94.1 ± 3.5%
same,maximal % inhibition of viability,UT-SCC-24B [7]; [17],99.67 ± 0.31%
same,maximal % inhibition of viability,UT-SCC-24B [7]; [18],99.33 ± 0.61%
same,maximal % inhibition of viability,UT-SCC-24B [7]; [19],99.83 ± 0.29%
same,maximal % inhibition of viability,UT-SCC-24B [7]; [20],99.7 ± 0.52%
same,maximal % inhibition of viability,UT-SCC-24B [7]; [21],99.47 ± 0.46%
same,maximal % inhibition of viability,UT-SCC-8 [8]; [17],99.83 ± 0.29%
same,maximal % inhibition of viability,UT-SCC-8 [8]; [18],99 ± 1%
same,maximal % inhibition of viability,UT-SCC-8 [8]; [19],99.967 ± 0.058%
same,maximal % inhibition of viability,UT-SCC-8 [8]; [20],99.967 ± 0.058%
same,maximal % inhibition of viability,UT-SCC-8 [8]; [21],99.37 ± 0.85%
same,relative IC50,UT-SCC-106A [9]; [17],0.319 µM
same,relative IC50,UT-SCC-106A [9]; [18],2.83 µM
same,relative IC50,UT-SCC-106A [9]; [19],0.171 µM
same,relative IC50,UT-SCC-106A [9]; [20],2.27 µM
same,relative IC50,UT-SCC-106A [9]; [21],0.126 µM
same,relative IC50,UT-SCC-14; [17],0.049 µM
same,relative IC50,UT-SCC-14; [18],0.97 µM
same,relative IC50,UT-SCC-14; [19],0.0591 µM
same,relative IC50,UT-SCC-14; [20],0.31 µM
same,relative IC50,UT-SCC-14; [21],0.0612 µM
same,relative IC50,UT-SCC-40 [10]; [17],0.0489 µM
same,relative IC50,UT-SCC-40 [10]; [18],1.31 µM
same,relative IC50,UT-SCC-40 [10]; [19],0.0658 µM
same,relative IC50,UT-SCC-40 [10]; [20],1.27 µM
same,relative IC50,UT-SCC-40 [10]; [21],0.211 µM
same,relative IC50,UT-SCC-42A [11]; [17],0.253 µM
same,relative IC50,UT-SCC-42A [11]; [18],2.02 µM
same,relative IC50,UT-SCC-42A [11]; [19],0.205 µM
same,relative IC50,UT-SCC-42A [11]; [20],1.27 µM
same,relative IC50,UT-SCC-42A [11]; [21],0.238 µM
same,relative IC50,UT-SCC-42B; [17],0.0759 µM
same,relative IC50,UT-SCC-42B; [19],0.299 µM
same,relative IC50,UT-SCC-42B; [20],2.47 µM
same,relative IC50,UT-SCC-42B; [21],0.808 µM
same,relative IC50,UT-SCC-81; [17],0.0365 µM
same,relative IC50,UT-SCC-81; [18],1.51 µM
same,relative IC50,UT-SCC-81; [19],0.052 µM
same,relative IC50,UT-SCC-81; [20],1.59 µM
same,relative IC50,UT-SCC-81; [21],0.0696 µM
same,relative IC50,UT-SCC-28 [12]; [17],3.42 µM
same,relative IC50,UT-SCC-28 [12]; [18],1.51 µM
same,relative IC50,UT-SCC-28 [12]; [19],1.63 µM
same,relative IC50,UT-SCC-28 [12]; [21],1.76 µM
same,relative IC50,UT-SCC-73 [13]; [17],2.12 µM
same,relative IC50,UT-SCC-73 [13]; [18],2.07 µM
same,relative IC50,UT-SCC-73 [13]; [19],1.66 µM
same,relative IC50,UT-SCC-73 [13]; [20],1.75 µM
same,relative IC50,UT-SCC-73 [13]; [21],1.65 µM
same,relative IC50,UT-SCC-44 [14]; [17],3.36 µM
same,relative IC50,UT-SCC-44 [14]; [18],2.36 µM
same,relative IC50,UT-SCC-44 [14]; [19],1.66 µM
same,relative IC50,UT-SCC-44 [14]; [20],2.05 µM
same,relative IC50,UT-SCC-44 [14]; [21],1.91 µM
same,relative IC50,UT-SCC-24B [15]; [17],0.253 µM
same,relative IC50,UT-SCC-24B [15]; [18],1.53 µM
same,relative IC50,UT-SCC-24B [15]; [19],0.234 µM
same,relative IC50,UT-SCC-24B [15]; [20],1.58 µM
same,relative IC50,UT-SCC-24B [15]; [21],0.0631 µM
same,relative IC50,UT-SCC-8 [16]; [17],0.0349 µM
same,relative IC50,UT-SCC-8 [16]; [18],3.64 µM
same,relative IC50,UT-SCC-8 [16]; [19],0.0357 µM
same,relative IC50,UT-SCC-8 [16]; [20],0.912 µM
same,relative IC50,UT-SCC-8 [16]; [21],0.0393 µM
